Measurements taken from patent US6355799B1, “Substituted benzene compounds, process for their preparation, and herbicidal and defoliant compositions containing them” (ISK Americas Incorporated, priority 1997, dated 2002).

How the values were obtained:
Format in all cases: in vivo
[1] = tested on: field corn (Zea mays L., var. Dekalb 535, CORN); experiment: Post-emerge test, crop safety; conditions: rating scale 0-100 (0 no damage, 100 complete death), 14 days after application
In short: (§1)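 Applied at 15–1000 g ai/ha from acetone in 187 l/ha spray volume. Post-emergence applications included 0.25% v/v non-ionic surfactant and reached plants sown 8–21 days before. Pre-emergence applications were incorporated by surface watering. Efficacy or crop damage was rated on a 0–100 scale after 14 days.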

[2] = tested on: upland rice (Oryza sp., var. Tebonnet, RICE); experiment: Post-emerge test, crop safety; conditions: rating scale 0-100 (0 no damage, 100 complete death), 14 days after application
In short: as §1

[3] = tested on: field corn (Zea mays L., var. Dekalb 535, CORN); experiment: Pre-emerge test, crop safety; conditions: rating scale 0-100, 14 days after application
In short: (§2)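 Sandy loam pots; pre-emerge: sown 1 d pre-spray, surface-watered after, then bottom-watered. Post-emerge: sown 8–21 d before, 2–3 leaf stage, + 0.25% v/v NIS, bottom-watered. Acetone, 187 l/ha track spray, 15–1000 g ai/ha. 0–100 injury score, day 14.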

[4] = tested on: upland rice (Oryza sp., var. Tebonnet, RICE); experiment: Pre-emerge test, crop safety; conditions: rating scale 0-100, 14 days after application
In short: as §2

[5] = tested on: lambsquarters (Chenopodium album, CHEAL); experiment: Post-emerge test, greenhouse herbicide activity screening; conditions: rating scale 0-100 (0 no damage, 100 complete death), 14 days after application
In short: (§3)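 Herbicidal damage is scored 0 (none) to 100 (complete plant death) two weeks after a simulated field spray. Rates span 15–1000 g ai/ha, delivered in acetone at 187 l/ha. For post-emergence treatments, plants have 2–3 leaves and the spray carries 0.25% v/v non-ionic surfactant.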

[6] = tested on: johnsongrass (Sorghum halepense, SORHA); experiment: as above; conditions: rating scale 0-100 (0 no damage, 100 complete death), 14 days after application
In short: as §3

[7] = tested on: barnyardgrass (Echinochloa crus-galli, ECHCG); experiment: as above; conditions: rating scale 0-100 (0 no damage, 100 complete death), 14 days after application
In short: as §3

[8] = tested on: green foxtail (Setaria viridis, SETVI); experiment: as above; conditions: rating scale 0-100 (0 no damage, 100 complete death), 14 days after application
In short: as §3

[9] = tested on: sicklepod (Cassia obtusifolia, CASOB); experiment: as above; conditions: rating scale 0-100 (0 no damage, 100 complete death), 14 days after application
In short: as §3

[10] = tested on: redroot pigweed (Amaranthus retroflexus, AMARE); experiment: as above; conditions: rating scale 0-100 (0 no damage, 100 complete death), 14 days after application
In short: as §3

[11] = tested on: ivyleaf morningglory (Ipomoea hederacea, IPOHE); experiment: as above; conditions: rating scale 0-100 (0 no damage, 100 complete death), 14 days after application
In short: as §3

[12] = tested on: large crabgrass (Digitaria sanguinalis, DIGSA); experiment: as above; conditions: rating scale 0-100 (0 no damage, 100 complete death), 14 days after application
In short: as §3

[13] = tested on: velvetleaf (Abutilon theophrasti, ABUTH); experiment: as above; conditions: rating scale 0-100 (0 no damage, 100 complete death), 14 days after application
In short: as §3

[14] = tested on: redroot pigweed (Amaranthus retroflexus, AMARE); experiment: Pre-emerge test, greenhouse herbicide activity screening; conditions: rating scale 0-100, 14 days after application
In short: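 Rating: 0–100 visual injury, 14 DAA. Application: acetone, 187 l/ha, 15–1000 g ai/ha, flat-fan track sprayer with nozzle 40–45 cm above soil or canopy. Post-emerge runs used 0.25% v/v surfactant on 2–3 leaf plants.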

[15] = tested on: lambsquarters (Chenopodium album, CHEAL); experiment: as above; conditions: rating scale 0-100, 14 days after application
In short: as §1

[16] = tested on: johnsongrass (Sorghum halepense, SORHA); experiment: as above; conditions: rating scale 0-100, 14 days after application
In short: as §1

[17] = tested on: common ragweed (Ambrosia artemisizfolia L., AMBEL); experiment: as above; conditions: rating scale 0-100, 14 days after application
In short: as §1

[18] = tested on: barnyardgrass (Echinochloa crus-galli, ECHCG); experiment: as above; conditions: rating scale 0-100, 14 days after application
In short: as §1

[19] = tested on: green foxtail (Setaria viridis, SETVI); experiment: as above; conditions: rating scale 0-100, 14 days after application
In short: as §1

[20] = tested on: sicklepod (Cassia obtusifolia, CASOB); experiment: as above; conditions: rating scale 0-100, 14 days after application
In short: as §1

[21] = tested on: ivyleaf morningglory (Ipomoea hederacea, IPOHE); experiment: as above; conditions: rating scale 0-100, 14 days after application
In short: as §1

[22] = tested on: large crabgrass (Digitaria sanguinalis, DIGSA); experiment: as above; conditions: rating scale 0-100, 14 days after application
In short: as §1

[23] = tested on: velvetleaf (Abutilon theophrasti, ABUTH); experiment: as above; conditions: rating scale 0-100, 14 days after application
In short: as §1

SMILES: COc1c(Cl)cc(F)c(-n2c(=O)cc(C(F)(F)F)n(C)c2=O)c1CC(C)(Cl)C(=O)OC(C(F)(F)F)C(F)(F)F (centres unmarked) [14-46]
- Post-emerge phytotoxicity rating CORN (crop damage) ([1]; Rate 63 g ai/ha): 95
- Post-emerge phytotoxicity rating CORN (crop damage) ([1]; Rate 250 g ai/ha): 100
- Post-emerge phytotoxicity rating RICE (crop damage) ([2]; Rate 63 g ai/ha): 60
- Post-emerge phytotoxicity rating RICE (crop damage) ([2]; Rate 250 g ai/ha): 100
- Pre-emerge phytotoxicity rating, crop damage CORN ([3]; 63 g ai/ha): 0
- Pre-emerge phytotoxicity rating, crop damage CORN ([3]; 250 g ai/ha): 0
- Pre-emerge phytotoxicity rating, crop damage RICE ([4]; 63 g ai/ha): 0
- Pre-emerge phytotoxicity rating, crop damage RICE ([4]; 250 g ai/ha): 30
- Post-emerge Herbicidal Activity, phytotoxicity rating CHEAL ([5]; Rate 63 g ai/ha): 100
- Post-emerge Herbicidal Activity, phytotoxicity rating CHEAL ([5]; Rate 250 g ai/ha): 100
- Post-emerge Herbicidal Activity, phytotoxicity rating SORHA ([6]; Rate 63 g ai/ha): 80
- Post-emerge Herbicidal Activity, phytotoxicity rating SORHA ([6]; Rate 250 g ai/ha): 90
- Post-emerge Herbicidal Activity, phytotoxicity rating ECHCG ([7]; Rate 63 g ai/ha): 100
- Post-emerge Herbicidal Activity, phytotoxicity rating ECHCG ([7]; Rate 250 g ai/ha): 100
- Post-emerge Herbicidal Activity, phytotoxicity rating SETVI ([8]; Rate 63 g ai/ha): 90
- Post-emerge Herbicidal Activity, phytotoxicity rating SETVI ([8]; Rate 250 g ai/ha): 100
- Post-emerge Herbicidal Activity, phytotoxicity rating CASOB ([9]; Rate 63 g ai/ha): 60
- Post-emerge Herbicidal Activity, phytotoxicity rating CASOB ([9]; Rate 250 g ai/ha): 90
- Post-emerge Herbicidal Activity, phytotoxicity rating AMARE ([10]; Rate 63 g ai/ha): 95
- Post-emerge Herbicidal Activity, phytotoxicity rating AMARE ([10]; Rate 250 g ai/ha): 100
- Post-emerge Herbicidal Activity, phytotoxicity rating IPOHE ([11]; Rate 63 g ai/ha): 100
- Post-emerge Herbicidal Activity, phytotoxicity rating IPOHE ([11]; Rate 250 g ai/ha): 100
- Post-emerge Herbicidal Activity, phytotoxicity rating DIGSA ([12]; Rate 63 g ai/ha): 80
- Post-emerge Herbicidal Activity, phytotoxicity rating DIGSA ([12]; Rate 250 g ai/ha): 100
- Post-emerge Herbicidal Activity, phytotoxicity rating ABUTH ([13]; Rate 63 g ai/ha): 100
- Post-emerge Herbicidal Activity, phytotoxicity rating ABUTH ([13]; Rate 250 g ai/ha): 100
- Pre-emerge herbicidal activity, phytotoxicity rating AMARE ([14]; 63 g ai/ha): 60
- Pre-emerge herbicidal activity, phytotoxicity rating AMARE ([14]; 250 g ai/ha): 95
- Pre-emerge herbicidal activity, phytotoxicity rating CHEAL ([15]; 63 g ai/ha): 0
- Pre-emerge herbicidal activity, phytotoxicity rating CHEAL ([15]; 250 g ai/ha): 90
- Pre-emerge herbicidal activity, phytotoxicity rating SORHA ([16]; 63 g ai/ha): 0
- Pre-emerge herbicidal activity, phytotoxicity rating SORHA ([16]; 250 g ai/ha): 0
- Pre-emerge herbicidal activity, phytotoxicity rating AMBEL ([17]; 63 g ai/ha): 50
- Pre-emerge herbicidal activity, phytotoxicity rating AMBEL ([17]; 250 g ai/ha): 100
- Pre-emerge herbicidal activity, phytotoxicity rating ECHCG ([18]; 63 g ai/ha): 0
- Pre-emerge herbicidal activity, phytotoxicity rating ECHCG ([18]; 250 g ai/ha): 0
- Pre-emerge herbicidal activity, phytotoxicity rating SETVI ([19]; 63 g ai/ha): 0
- Pre-emerge herbicidal activity, phytotoxicity rating SETVI ([19]; 250 g ai/ha): 0
- Pre-emerge herbicidal activity, phytotoxicity rating CASOB ([20]; 63 g ai/ha): 0
- Pre-emerge herbicidal activity, phytotoxicity rating CASOB ([20]; 250 g ai/ha): 0
- Pre-emerge herbicidal activity, phytotoxicity rating IPOHE ([21]; 63 g ai/ha): 0
- Pre-emerge herbicidal activity, phytotoxicity rating IPOHE ([21]; 250 g ai/ha): 0
- Pre-emerge herbicidal activity, phytotoxicity rating DIGSA ([22]; 63 g ai/ha): 0
- Pre-emerge herbicidal activity, phytotoxicity rating DIGSA ([22]; 250 g ai/ha): 0
- Pre-emerge herbicidal activity, phytotoxicity rating ABUTH ([23]; 63 g ai/ha): 80
- Pre-emerge herbicidal activity, phytotoxicity rating ABUTH ([23]; 250 g ai/ha): 100

SMILES: COC(=O)C(Cl)Cc1c(OC)c(Cl)cc(F)c1-n1c(=O)cc(C(F)(F)F)n(C)c1=O (centres unmarked) [14-3]
- Post-emerge phytotoxicity rating CORN (crop damage) ([1]; Rate 63 g ai/ha): 100
- Post-emerge phytotoxicity rating CORN (crop damage) ([1]; Rate 250 g ai/ha): 100
- Post-emerge phytotoxicity rating RICE (crop damage) ([2]; Rate 63 g ai/ha): 5
- Post-emerge phytotoxicity rating RICE (crop damage) ([2]; Rate 250 g ai/ha): 80
- Pre-emerge phytotoxicity rating, crop damage CORN ([3]; 63 g ai/ha): 0
- Pre-emerge phytotoxicity rating, crop damage CORN ([3]; 250 g ai/ha): 90
- Pre-emerge phytotoxicity rating, crop damage RICE ([4]; 63 g ai/ha): 0
- Pre-emerge phytotoxicity rating, crop damage RICE ([4]; 250 g ai/ha): 50
- Post-emerge Herbicidal Activity, phytotoxicity rating CHEAL ([5]; Rate 63 g ai/ha): 90
- Post-emerge Herbicidal Activity, phytotoxicity rating CHEAL ([5]; Rate 250 g ai/ha): 100
- Post-emerge Herbicidal Activity, phytotoxicity rating SORHA ([6]; Rate 63 g ai/ha): 80
- Post-emerge Herbicidal Activity, phytotoxicity rating SORHA ([6]; Rate 250 g ai/ha): 70
- Post-emerge Herbicidal Activity, phytotoxicity rating ECHCG ([7]; Rate 63 g ai/ha): 99
- Post-emerge Herbicidal Activity, phytotoxicity rating ECHCG ([7]; Rate 250 g ai/ha): 100
- Post-emerge Herbicidal Activity, phytotoxicity rating SETVI ([8]; Rate 63 g ai/ha): 30
- Post-emerge Herbicidal Activity, phytotoxicity rating SETVI ([8]; Rate 250 g ai/ha): 70
- Post-emerge Herbicidal Activity, phytotoxicity rating CASOB ([9]; Rate 63 g ai/ha): 10
- Post-emerge Herbicidal Activity, phytotoxicity rating CASOB ([9]; Rate 250 g ai/ha): 75
- Post-emerge Herbicidal Activity, phytotoxicity rating AMARE ([10]; Rate 63 g ai/ha): 95
- Post-emerge Herbicidal Activity, phytotoxicity rating AMARE ([10]; Rate 250 g ai/ha): 100
- Post-emerge Herbicidal Activity, phytotoxicity rating IPOHE ([11]; Rate 63 g ai/ha): 50
- Post-emerge Herbicidal Activity, phytotoxicity rating IPOHE ([11]; Rate 250 g ai/ha): 100
- Post-emerge Herbicidal Activity, phytotoxicity rating DIGSA ([12]; Rate 63 g ai/ha): 99
- Post-emerge Herbicidal Activity, phytotoxicity rating DIGSA ([12]; Rate 250 g ai/ha): 100
- Post-emerge Herbicidal Activity, phytotoxicity rating ABUTH ([13]; Rate 63 g ai/ha): 100
- Post-emerge Herbicidal Activity, phytotoxicity rating ABUTH ([13]; Rate 250 g ai/ha): 100
- Pre-emerge herbicidal activity, phytotoxicity rating AMARE ([14]; 63 g ai/ha): 100
- Pre-emerge herbicidal activity, phytotoxicity rating AMARE ([14]; 250 g ai/ha): 100
- Pre-emerge herbicidal activity, phytotoxicity rating CHEAL ([15]; 63 g ai/ha): 100
- Pre-emerge herbicidal activity, phytotoxicity rating CHEAL ([15]; 250 g ai/ha): 100
- Pre-emerge herbicidal activity, phytotoxicity rating SORHA ([16]; 63 g ai/ha): 0
- Pre-emerge herbicidal activity, phytotoxicity rating SORHA ([16]; 250 g ai/ha): 60
- Pre-emerge herbicidal activity, phytotoxicity rating AMBEL ([17]; 63 g ai/ha): 0
- Pre-emerge herbicidal activity, phytotoxicity rating AMBEL ([17]; 250 g ai/ha): 65
- Pre-emerge herbicidal activity, phytotoxicity rating ECHCG ([18]; 63 g ai/ha): 0
- Pre-emerge herbicidal activity, phytotoxicity rating ECHCG ([18]; 250 g ai/ha): 40
- Pre-emerge herbicidal activity, phytotoxicity rating SETVI ([19]; 63 g ai/ha): 40
- Pre-emerge herbicidal activity, phytotoxicity rating SETVI ([19]; 250 g ai/ha): 80
- Pre-emerge herbicidal activity, phytotoxicity rating CASOB ([20]; 63 g ai/ha): 20
- Pre-emerge herbicidal activity, phytotoxicity rating CASOB ([20]; 250 g ai/ha): 80
- Pre-emerge herbicidal activity, phytotoxicity rating IPOHE ([21]; 63 g ai/ha): 0
- Pre-emerge herbicidal activity, phytotoxicity rating IPOHE ([21]; 250 g ai/ha): 50
- Pre-emerge herbicidal activity, phytotoxicity rating DIGSA ([22]; 63 g ai/ha): 30
- Pre-emerge herbicidal activity, phytotoxicity rating DIGSA ([22]; 250 g ai/ha): 90
- Pre-emerge herbicidal activity, phytotoxicity rating ABUTH ([23]; 63 g ai/ha): 100
- Pre-emerge herbicidal activity, phytotoxicity rating ABUTH ([23]; 250 g ai/ha): 100
